According to PMC9516332 (Frontiers in Oncology, 2022):
Like-named read-outs stand apart in the source and are kept apart here.

Columns and labels:
Assay in all cases: Kinase panel profiling at 1 µmol/L (MSA or IMAP), percentage inhibition
Assay type in all cases: biochemical
[1] = target: panel of 255 wild-type kinases (Homo sapiens, UniProt P49137); conditions: kinase MAPKAPK2; 1 µmol/L single concentration; read-out: %-inhibition at 1 µmol/L, MAPKAPK2
[2] = target: panel of 255 wild-type kinases (Homo sapiens, UniProt P07947); conditions: kinase YES; 1 µmol/L single concentration; read-out: %-inhibition at 1 µmol/L, YES
[3] = target: panel of 255 wild-type kinases (Homo sapiens, UniProt Q9H2G2); conditions: kinase SLK; 1 µmol/L single concentration; read-out: %-inhibition at 1 µmol/L, SLK
[4] = target: panel of 255 wild-type kinases (Homo sapiens, UniProt Q16620); conditions: kinase TRKB; 1 µmol/L single concentration; read-out: %-inhibition at 1 µmol/L, TRKB
[5] = target: T1, panel of 255 wild-type kinases (Homo sapiens, UniProt Q9NWZ3); conditions: kinase IRAK4; 1 µmol/L single concentration; read-out: %-inhibition at 1 µmol/L, IRAK4
T1 sequence (Q9NWZ3 1-460): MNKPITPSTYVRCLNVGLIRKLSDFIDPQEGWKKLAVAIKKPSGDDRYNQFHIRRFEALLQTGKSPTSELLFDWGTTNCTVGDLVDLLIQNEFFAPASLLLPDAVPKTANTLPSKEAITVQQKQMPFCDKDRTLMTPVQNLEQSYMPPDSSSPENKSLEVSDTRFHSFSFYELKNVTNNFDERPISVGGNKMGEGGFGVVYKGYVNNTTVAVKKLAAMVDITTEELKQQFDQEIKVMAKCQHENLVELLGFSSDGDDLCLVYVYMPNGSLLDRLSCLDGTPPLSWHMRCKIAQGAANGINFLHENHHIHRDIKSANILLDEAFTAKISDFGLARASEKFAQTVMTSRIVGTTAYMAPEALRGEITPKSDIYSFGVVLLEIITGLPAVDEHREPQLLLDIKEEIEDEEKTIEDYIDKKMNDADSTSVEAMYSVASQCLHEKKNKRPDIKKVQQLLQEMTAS

[6] = target: panel of 255 wild-type kinases (Homo sapiens, UniProt P07332); conditions: kinase FES; 1 µmol/L single concentration; read-out: %-inhibition at 1 µmol/L, FES
[7] = target: panel of 255 wild-type kinases (Homo sapiens, UniProt O00311); conditions: CDC7/ASK kinase assay; 1 µmol/L single concentration; read-out: %-inhibition CDC7/ASK
[8] = target: panel of 255 wild-type kinases (Homo sapiens, UniProt P07949); conditions: kinase RET; 1 µmol/L single concentration; read-out: %-inhibition at 1 µmol/L, RET
[9] = target: panel of 255 wild-type kinases (Homo sapiens, UniProt P53350); conditions: kinase PLK1; 1 µmol/L single concentration; read-out: %-inhibition at 1 µmol/L, PLK1
[10] = target: T2, panel of 255 wild-type kinases (Homo sapiens, UniProt P42681); conditions: kinase TXK; 1 µmol/L single concentration; read-out: %-inhibition at 1 µmol/L, TXK
T2 sequence (P42681 1-527): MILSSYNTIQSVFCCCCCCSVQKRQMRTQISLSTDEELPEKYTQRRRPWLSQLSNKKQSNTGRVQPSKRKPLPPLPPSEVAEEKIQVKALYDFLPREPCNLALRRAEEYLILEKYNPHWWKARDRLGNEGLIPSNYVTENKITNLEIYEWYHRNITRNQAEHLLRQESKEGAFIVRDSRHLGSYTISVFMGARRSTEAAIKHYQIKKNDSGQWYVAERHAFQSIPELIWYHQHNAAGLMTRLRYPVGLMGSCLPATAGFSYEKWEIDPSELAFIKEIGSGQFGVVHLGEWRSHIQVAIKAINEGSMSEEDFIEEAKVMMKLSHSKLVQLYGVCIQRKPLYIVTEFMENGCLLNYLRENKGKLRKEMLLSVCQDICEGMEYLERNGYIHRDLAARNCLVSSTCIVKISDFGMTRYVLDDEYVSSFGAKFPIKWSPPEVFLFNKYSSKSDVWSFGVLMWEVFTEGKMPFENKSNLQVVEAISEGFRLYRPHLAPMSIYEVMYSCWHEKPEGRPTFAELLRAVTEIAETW

[11] = target: panel of 255 wild-type kinases (Homo sapiens, UniProt Q13554); conditions: CaMK2β kinase assay; 1 µmol/L single concentration; read-out: %-inhibition CaMK2β
[12] = target: panel of 255 wild-type kinases (Homo sapiens, UniProt Q8IY84); conditions: NIM1K; 1 µmol/L single concentration; read-out: %-inhibition, NIM1K
[13] = target: panel of 255 wild-type kinases (Homo sapiens, UniProt P51451); conditions: BLK kinase assay; 1 µmol/L single concentration; read-out: %-inhibition BLK
[14] = target: T3, panel of 255 wild-type kinases (Homo sapiens, UniProt O14965); conditions: 1 µmol/L single concentration
T3 sequence (O14965 1-403): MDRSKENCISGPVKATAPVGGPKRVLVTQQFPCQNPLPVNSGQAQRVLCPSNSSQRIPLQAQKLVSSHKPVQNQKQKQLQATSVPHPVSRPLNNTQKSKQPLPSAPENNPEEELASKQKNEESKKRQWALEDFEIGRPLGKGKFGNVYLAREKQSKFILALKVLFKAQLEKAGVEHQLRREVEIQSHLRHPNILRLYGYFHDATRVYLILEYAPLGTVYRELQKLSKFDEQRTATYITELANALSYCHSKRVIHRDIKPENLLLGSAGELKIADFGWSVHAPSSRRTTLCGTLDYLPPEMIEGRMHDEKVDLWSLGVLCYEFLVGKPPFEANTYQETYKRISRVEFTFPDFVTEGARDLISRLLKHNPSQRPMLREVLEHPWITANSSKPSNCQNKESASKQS

[15] = target: panel of 255 wild-type kinases (Homo sapiens, UniProt P00533); conditions: kinase EGFR; 1 µmol/L single concentration; read-out: %-inhibition at 1 µmol/L, EGFR
[16] = AurA kinase assay, read-out: %-inhibition AurA
[17] = AurA/TPX2 kinase assay, read-out: %-inhibition AurA/TPX2

| Structure (SMILES) | inhibition at 1 µM [1] [%] | inhibition at 1 µM [2] [%] | inhibition at 1 µM [3] [%] | inhibition at 1 µM [4] [%] | inhibition at 1 µM [5] [%] | inhibition at 1 µM [6] [%] | inhibition at 1 µM [7] [%] | inhibition at 1 µM [8] [%] | inhibition at 1 µM [9] [%] | inhibition at 1 µM [10] [%] | inhibition at 1 µM [11] [%] | inhibition at 1 µM [12] [%] | inhibition at 1 µM [13] [%] | inhibition at 1 µM [14, 16] [%] | inhibition at 1 µM [14, 17] [%] | inhibition at 1 µM [15] [%] |
| --- | --- | --- | --- | --- | --- | --- | --- | --- | --- | --- | --- | --- | --- | --- | --- | --- |
| CCc1nc(C(N)=O)c(Nc2ccc(N3CCC(N4CCN(C)CC4)CC3)c(OC)c2)nc1NC1CCOCC1 [gilteritinib] | -27 | 98 | 99 | 98 | 79 | 76 | 3 | 100 | 7.52 | 79 | 24 | 29 | 94 | 80 | 71 | 85 |
| CCn1c(=O)c(-c2cc(NC(=O)Nc3ccccc3)c(F)cc2Br)cc2cnc(NC)cc21 [ripretinib] | -24 | 81 | 18 | 64 | -3.46 | 23 | 0.278 | 94 | 4 | 11 | 1.19 | 0.056 | 26 | -2 | -0.807 | 10 |
| COc1ccc(CN2C3CC2CN(c2ccc(-c4cc(OCC(C)(C)O)cn5ncc(C#N)c45)cn2)C3)cn1 [selpercatinib] | -5.47 | 84 | 14 | 16 | 1.9 | 15 | -2 | 102 | -0.437 | 54 | 1.27 | -2 | 76 | 66 | 71 | 0.116 |
| CCN1C(=O)N(c2c(F)c(OC)cc(OC)c2F)Cc2cnc3[nH]c(CN4CCOCC4)cc3c21 [pemigatinib] | -0.432 | 24 | 0.681 | 11 | 0.22 | 1.55 | -3.54 | 55 | -1.52 | -0.753 | 9 | -1.5 | 27 | 11 | -4.43 | -2 |

Results, then the compound that gave them:

| inhibition at 1 µM [1] [%] | inhibition at 1 µM [2] [%] | inhibition at 1 µM [3] [%] | inhibition at 1 µM [4] [%] | inhibition at 1 µM [5] [%] | inhibition at 1 µM [6] [%] | inhibition at 1 µM [7] [%] | inhibition at 1 µM [8] [%] | inhibition at 1 µM [9] [%] | inhibition at 1 µM [10] [%] | inhibition at 1 µM [11] [%] | inhibition at 1 µM [12] [%] | inhibition at 1 µM [13] [%] | inhibition at 1 µM [14, 16] [%] | inhibition at 1 µM [14, 17] [%] | inhibition at 1 µM [15] [%] | Structure (SMILES) |
| --- | --- | --- | --- | --- | --- | --- | --- | --- | --- | --- | --- | --- | --- | --- | --- | --- |
| -13 | -2.66 | 5.58 | 102 | 1.67 | -1.07 | -3.24 | 1.71 | -1.17 | 16 | 0.902 | -1.85 | -4 | -4.5 | -3 | 5 | O=C(Nc1cnn2ccc(N3CCC[C@@H]3c3cc(F)ccc3F)nc12)N1CC[C@H](O)C1 [larotrectinib] |
| -13 | 2.16 | 3.27 | 3.62 | 1.26 | 6 | -0.214 | -6 | 0.406 | -3 | 2.18 | -2.23 | 10 | -3 | -4 | 9 | Cn1cnc2c(F)c(Nc3ccc(Br)cc3F)c(C(=O)NOCCO)cc21 [binimetinib] |
| -16 | -4 | 8 | -2.43 | -3.77 | -3.47 | -0.499 | 1.62 | 0.0286 | -4 | -7 | -1.81 | -13 | -0.801 | -0.57 | 2 | Cc1nc(NC(=O)N2CCC[C@H]2C(N)=O)sc1-c1ccnc(C(C)(C)C(F)(F)F)c1 [alpelisib] |
| -28 | 3.64 | 11 | 6 | 0.835 | 1.74 | -0.857 | 35 | -3.69 | 5 | 1.33 | 1.49 | 2.27 | -1.53 | -9 | 95 | Cc1cc(Nc2ncnc3ccc(NC4=NC(C)(C)CO4)cc23)ccc1Oc1ccn2ncnc2c1 [tucatinib] |
| -5 | 14 | 8 | 4 | -1.34 | -3.3 | -0.0396 | 38 | -4 | 3.19 | -0.923 | -0.385 | -6 | -5.67 | -8 | 26 | Cn1cnc2c(F)c(Nc3ccc(Br)cc3Cl)c(C(=O)NOCCO)cc21 [selumetinib] |
